The values below come from patent US7511145B2 (Genelabs Technologies, Inc., priority 2003, dated 2009).

One series addresses T1, HCV-NS5b (Hepatitis C virus genotype 1b, UniProt Q9WMX2).
T1 construct: (His)6 (C); made in house; host or cells: XL-1 cells (E. coli), IPTG-inducible plasmid, nickel-NTA purification
The experiment in a line: HCV-NS5b enzyme assay (incorporation of radiolabeled UTP). The note with it: for inhibition at 33 µM: enzyme inhibition at compound concentration of 33 uM; for inhibition at 100 µM: read-out: % inh@100, enzyme inhibition at compound concentration of 100 uM. Type of series: biochemical. In outline:
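His6-tagged NS5b lacking the C-terminal 21 residues, expressed in XL-1 and Ni-NTA purified. Reaction at pH 7.5 with 5 mM MgCl2, 10 μM each NTP including [3H]-UTP and biotinylated HCV heteropolymeric template, 2 h at 37° C; SPA read-out; % inhibition at 100 and 33 uM versus no-compound control, background subtracted.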

For series [1] the following is noted: cited from earlier work.

With `COc1ccc(-c2ccc(Cl)cc2)c(-c2ccc3cc(-c4nc5cc(C(=O)O)ccc5n4Cc4ccccc4)ccc3n2)c1` [Compound 559, 1-Benzyl-2-[2-(4′-chloro-4-methoxy-biphen-2-yl)-quinolin-6-yl]-1H-benzoimidazole-5-carboxylic acid], at HCV-NS5b, the inhibition at 33 µM was 101% and the inhibition at 100 µM was determined as 101%.

On to `COc1ccc(-c2ccc(F)c(F)c2)c(-c2ccc3cc(-c4nc5cc(C(=O)O)ccc5n4C4CCCCC4)ccc3n2)c1` [Compound 560, 1-Cyclohexyl-2-[2-(3′,4′-difluoro-4-methoxy-biphen-2-yl)-quinolin-6-yl]-1H-benzoimidazole-5-carboxylic acid], for which, at HCV-NS5b, the inhibition at 33 µM was 101% and the inhibition at 100 µM is 101%.

As to `COc1ccc(-c2cc(Cl)cc(Cl)c2)c(-c2ccc3cc(-c4nc5cc(C(=O)O)ccc5n4C4CCCCC4)ccc3n2)c1` [Compound 562, 1-Cyclohexyl-2-[2-(3′,5′-dichloro-4-methoxy-biphen-2-yl)-quinolin-6-yl]-1H-benzoimidazole-5-carboxylic acid], at HCV-NS5b, the inhibition at 33 µM was found to be 102% and the inhibition at 100 µM came out at 101%.

Regarding `O=C(O)c1ccc2c(c1)nc(-c1ccc3nc(-c4cc(F)ccc4-c4ccc(Cl)cc4)ccc3c1)n2C1CCCCC1` [Compound 563, 2-[2-(4′-Chloro-4-fluoro-biphen-2-yl)-quinolin-6-yl]-1-cyclohexyl-1H-benzoimidazole-5-carboxylic acid], on HCV-NS5b, the inhibition at 33 µM is 101% and the inhibition at 100 µM is 101%.

Regarding `CCC(CC)n1c(-c2ccc3nc(-c4cc(OC)ccc4-c4ccc(Cl)cc4)ccc3c2)nc2cc(C(=O)O)ccc21` [Compound 564, 2-[2-(4′-Chloro-4-methoxy-biphen-2-yl)-quinolin-6-yl]-1-(1-ethyl-propyl)-1H-benzoimidazole-5-carboxylic acid], at HCV-NS5b, the inhibition at 33 µM came out at 102% and the inhibition at 100 µM worked out at 101%.

On to `O=C(O)c1ccc2c(c1)nc(-c1ccc3nc(-c4cc5c(cc4-c4ccc(Cl)cc4)OCCCO5)ccc3c1)n2C1CCCCC1` [Compound 565, 2-{2-[8-(4-chloro-phenyl)-3,4-dihydro-2H-benzo[b][1,4]dioxepin-7-yl]-quinolin-6-yl}-1-cyclohexyl-1H-benzoimidazole-5-carboxylic acid], for which, on HCV-NS5b, the inhibition at 33 µM is 102% and the inhibition at 100 µM stood at 100%.

With `COc1ccc(-c2ccc(Cl)cc2)c(-c2ccc3cc(-c4nc5cc(C(=O)O)ccc5n4CC4CCCO4)ccc3n2)c1` (stereo not shown) [Compound 566, 2-[2-(4′-chloro-4-methoxy-biphen-2-yl)-quinolin-6-yl]-1-(tetrahydrofuran-2-yl-methyl)-1H-benzoimidazole-5-carboxylic acid], on HCV-NS5b, the inhibition at 33 µM was determined as 99.2% and the inhibition at 100 µM stood at 100%.

Take `O=C(O)c1ccc2c(c1)nc(-c1ccc3nc(-c4cc(Cl)ccc4-c4ccc(Cl)cc4)ccc3c1)n2C1CCCCC1` [Compound 567, 1-cyclohexyl-2-[2-(4,4′-dichloro-biphen-2-yl)-quinolin-6-yl]-1H-benzoimidazole-5-carboxylic acid]: at HCV-NS5b, the inhibition at 33 µM came out at 101% and the inhibition at 100 µM was found to be 97.7%.

In the case of `COc1ccc(-c2ccc(Cl)cc2)c(-c2ccc3cc(-c4nc5cc(C(=O)O)ccc5n4C4CC5CCC4C5)ccc3n2)c1` (stereo not shown) [Compound 568, 1-bicyclo[2.2.1]hept-2-yl-2-[2-(4′-chloro-4-methoxy-biphen-2-yl)-quinolin-6-yl]1H-benzoimidazole-5-carboxylic acid], at HCV-NS5b, the inhibition at 33 µM stood at 101% and the inhibition at 100 µM turned out to be 100%.

Turning to `Nc1ccc(-c2ccc(Cl)cc2)c(-c2ccc3cc(-c4nc5cc(C(=O)O)ccc5n4C4CCCCC4)ccc3n2)c1` [Compound 569, 2-[2-(4-amino-4′-chloro-biphen-2-yl)-quinolin-6-yl]-1-cyclohexyl-1H-benzoimidazole-5-carboxylic acid], on HCV-NS5b, the inhibition at 33 µM amounted to 101% and the inhibition at 100 µM stood at 101%.

`NC(=O)c1ncn([C@@H]2O[C@H](CO)[C@@H](O)[C@H]2O)n1` [Ribavirin, ribavirin]: the teratogenicity / embryotoxicity entry in series [1] (human, in vivo) was “teratogenic and embryotoxic”. Moreover, in series [1] (patients treated at currently recommended doses), the “patients with significant hemolysis” value was 10-20%.
